Where a name gives a salt, the structure may show the parent alone. One block for each compound: values may come before it.
Columns and labels:
Type in all cases: physicochemical
[1] = Fluorescence lifetime, time-correlated single photon counting (excitation 500 nm, detection 550 nm); details: excited at 500 nm, detection at 550 nm
Protocol: FIG. 2 is a plot showing the fluorescence lifetimes of certain dyes according to the invention. Fluorescence lifetimes of a range of dyes were determined by a time-correlated single photon counting technique using an Edinburgh Instruments FL900 CDT Time-Resolved Fluorometer. Samples were excited at 500 nm using a hydrogen-filled flashlamp. Detection was at 550 nm.

[2] = Fluorescence of the dinitro dye in solvents; details: in DMF, DMSO and methanol
[3] = Fluorescence lifetimes of dye and its ovalbumin conjugate in PBS
Protocol: The fluorescence lifetimes of 6-{7,14-dioxo-2,9-disulpho-7,14-dihydro-12H-quino[2,3-b]acridin-5-yl}hexanoic acid and its conjugate with ovalbumin (Conjugate A) was determined in PBS.

SMILES: CCCCCCn1c2ccc(Br)cc2c(=O)c2cc3c(cc21)c(=O)c1cc(Br)ccc1n3CCCCCC [2,9-Dibromo-5,12-di-n-hexylquinacridone, 2,9-dibromo-5,12-dihexylquinacridone]
Lifetime ([1]; solvent CH2Cl2/MeOH): 16.9 nsec

SMILES: O=c1c2cc(S(=O)(=O)O)ccc2[nH]c2cc3c(=O)c4cc(S(=O)(=O)O)ccc4[nH]c3cc12 [2,9-Quinacridone disulphonic acid, Quinacridone-2,9-disulphonic acid, (di-potassium salt)]
Lifetime ([1]; solvent water): 20.6 nsec

SMILES: CCCCCCn1c2ccccc2c(=O)c2cc3c(cc21)c(=O)c1cc(Br)ccc1n3CCCCCC [2-Bromo-5,12-di-n-hexylquinacridone, 2-Bromo-5,12-dihexylquinacridone]
Lifetime ([1]; solvent CH2Cl2/MeOH): 20.4 nsec

SMILES: CCCCCCn1c2ccccc2c(=O)c2cc3c(cc21)c(=O)c1ccccc1n3CCCCCC [5,12-Di-n-hexylquinacridone, 5,12-Dihexylquinacridone]
Lifetime ([1]; solvent CH2Cl2/MeOH): 26.5 nsec

SMILES: CCOC(=O)CCCCCn1c2ccc(Cl)cc2c(=O)c2cc3c(cc21)c(=O)c1cc(Cl)ccc1n3CCCCCC(=O)OCC [6-{2,9-Dichloro-12-(5-carboxypentyl)-7,14-dioxo-7,14-dihydro-12H-quino[2,3-b]acridin-5-yl}hexanoic acid, diethyl ester]
Lifetime ([1]; solvent MeOH): 22.3 nsec

SMILES: CCOC(=O)CCCCCn1c2ccc(F)cc2c(=O)c2cc3c(cc21)c(=O)c1cc(F)ccc1n3CCCCCC(=O)OCC [6-{2,9-Difluoro-12-(5-carboxypentyl)-7,14-dioxo-7,14-dihydro-12H-quino[2,3-b]acridin-5-yl}hexanoic acid, diethyl ester]
Lifetime ([1]; solvent MeOH): 21.4 nsec

SMILES: CCOC(=O)CCCCCn1c2ccc(OC)cc2c(=O)c2cc3c(cc21)c(=O)c1cc(OC)ccc1n3CCCCCC(=O)OCC [6-{2,9-Dimethoxy-12-(5-carboxypentyl)-7,14-dioxo-7,14-dihydro-12H-quino[2,3-b]acridin-5-yl}hexanoic acid, diethyl ester]
Lifetime ([1]; solvent EtOH): 14.0 nsec

SMILES: CCOC(=O)CCCCCn1c2ccc([N+](=O)[O-])cc2c(=O)c2cc3c(cc21)c(=O)c1cc([N+](=O)[O-])ccc1n3CCCCCC(=O)OCC [6-{2,9-Dinitro-12-(5-carboxypentyl)-7,14-dioxo-7,14-dihydro-12H-quino[2,3-b]acridin-5-yl}hexanoic acid, diethyl ester]
Fluorescence [2]: very weak or is non-fluorescent | Lifetime ([1]; solvent CH2Cl2): 17.0 nsec

Other lines, results leading:

Lifetime ([1]; solvent water): 18.0 nsec
SMILES: CCOC(=O)CCCCCn1c2ccc(Br)cc2c(=O)c2cc3c(cc21)c(=O)c1cc(Br)ccc1n3CCCCCC(=O)OCC [6-{2,9-dibromo-12-(5-carboxypentyl)-7,14-dioxo-7,14-dihydro-12H-quino[2,3-b]acridin-5-yl}hexanoic acid, diethyl ester]

Lifetime ([1]; solvent MeOH): 21.9 nsec
SMILES: CCOC(=O)CCCCCn1c2ccc(C)cc2c(=O)c2cc3c(cc21)c(=O)c1cc(C)ccc1n3CCCCCC(=O)OCC [6-{2,9-dimethyl-12-(5-carboxypentyl)-7,14-dioxo-7,14-dihydro-12H-quino[2,3-b]acridin-5-yl}hexanoic acid, diethyl ester]

Lifetime ([1]; solvent water): 20.1 nsec | Lifetime (nsec) [3]: 20.1 nsec
SMILES: O=C(O)CCCCCn1c2ccc(S(=O)(=O)O)cc2c(=O)c2cc3[nH]c4ccc(S(=O)(=O)O)cc4c(=O)c3cc21 [6-{7,14-Dioxo-2,9-disulpho-7,14-dihydro-12H-quino[2,3-b]acridin-5-yl}hexanoic acid]

Lifetime ([1]; solvent water): 22.7 nsec
SMILES: CCn1c2ccc(S(=O)(=O)O)cc2c(=O)c2cc3c(cc21)c(=O)c1cc(S(=O)(=O)O)ccc1n3CCCCCC(=O)O [6-{12-ethyl-7,14-dioxo-2,9-disulpho-7,14-dihydro-12H-quino[2,3-b]acridin-5-yl}hexanoic acid]

Lifetime ([1]; solvent water): 22.1 nsec
SMILES: O=c1c2cc3[nH]c4c(S(=O)(=O)O)cc(S(=O)(=O)O)cc4c(=O)c3cc2[nH]c2c(S(=O)(=O)O)cc(S(=O)(=O)O)cc12 [Quinacridone-2,4,9,11-tetrasulphonic acid (tetra-potassium salt)]

Lifetime ([1]; solvent DMSO): 22 nsec
SMILES: O=c1c2ccccc2[nH]c2cc3c(=O)c4ccccc4[nH]c3cc12 [Quinacridone]
